Test results as given in PubChem BioAssay AID2060511 (Molecular Pharmacology Branch, DTP, NCI, 2025).

System: 422866-222-R5-J1-PDC spheroids with HUVEC/MSC, viability
Assay: Anticancer human tumor 422866-222-R5-J1-PDC patient-derived pancreatic adenocarcinoma cell line growth inhibition [GQUAD]
Conditions: for IC50: curve of first compound; for viability, T/C: stronger effect = lower value
How it was run: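 Tumor cells were grown as complex spheroids with HUVEC endothelial cells and mesenchymal stem cells as stroma. G-quadruplex stabilizers were combined with targeted agents over half-log dilutions from near the clinical Cmax, or from 10 microM.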

[1] = second compound 0.0316 µM, first compound 0.0316 µM
[2] = second compound 0.0316 µM, first compound 0.1 µM
[3] = second compound 0.0316 µM, first compound 0.316 µM
[4] = second compound 0.0316 µM, first compound 1 µM
[5] = second compound 0.0316 µM, first compound 3.16 µM
[6] = second compound 0.0316 µM, first compound 10 µM
[7] = second compound 0.1 µM, first compound 0.0316 µM
[8] = second compound 0.1 µM, first compound 0.1 µM
[9] = second compound 0.1 µM, first compound 0.316 µM
[10] = second compound 0.1 µM, first compound 1 µM
[11] = second compound 0.1 µM, first compound 3.16 µM
[12] = second compound 0.1 µM, first compound 10 µM
[13] = second compound 0.316 µM, first compound 0.0316 µM
[14] = second compound 0.316 µM, first compound 0.1 µM
[15] = second compound 0.316 µM, first compound 0.316 µM
[16] = second compound 0.316 µM, first compound 1 µM
[17] = second compound 0.316 µM, first compound 3.16 µM
[18] = second compound 0.316 µM, first compound 10 µM
[19] = second compound 1 µM, first compound 0.0316 µM
[20] = second compound 1 µM, first compound 0.1 µM
[21] = second compound 1 µM, first compound 0.316 µM
[22] = second compound 1 µM, first compound 1 µM
[23] = second compound 1 µM, first compound 3.16 µM
[24] = second compound 1 µM, first compound 10 µM
[25] = second compound 3.16 µM, first compound 0.0316 µM
[26] = second compound 3.16 µM, first compound 0.1 µM
[27] = second compound 3.16 µM, first compound 0.316 µM
[28] = second compound 3.16 µM, first compound 1 µM
[29] = second compound 3.16 µM, first compound 3.16 µM
[30] = second compound 3.16 µM, first compound 10 µM
[31] = second compound 10 µM, first compound 0.0316 µM
[32] = second compound 10 µM, first compound 0.1 µM
[33] = second compound 10 µM, first compound 0.316 µM
[34] = second compound 10 µM, first compound 1 µM
[35] = second compound 10 µM, first compound 3.16 µM
[36] = second compound 10 µM, first compound 10 µM
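Further: spheroids exposed to compounds for seven days before reading.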
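Wherever viability, T/C is given: percent viability relative to DMSO vehicle control taken as 100%.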

Cc1cccc(N(C)C(=O)C2C(O)CCN2c2nc(C)cc(C(F)(F)F)c2C#N)c1 (stereo not drawn) + Cc1[nH]c2ccc(F)cc2c1-c1nc2c3cccnc3c3ncccc3c2[nH]1
IC50 (second compound 0.0316 µM): > 10000 nM
IC50 (second compound 0.1 µM): > 10000 nM
IC50 (second compound 0.316 µM): > 10000 nM
IC50 (second compound 1 µM): > 10000 nM
IC50 (second compound 3.16 µM): > 10000 nM
IC50 (second compound 10 µM): > 10000 nM
viability, T/C [1]: 107%
viability, T/C [2]: 95.2%
viability, T/C [3]: 102%
viability, T/C [4]: 79.5%
viability, T/C [5]: 116%
viability, T/C [6]: 108%
viability, T/C [7]: 88.8%
viability, T/C [8]: 92.2%
viability, T/C [9]: 116%
viability, T/C [10]: 82.8%
viability, T/C [11]: 99.9%
viability, T/C [12]: 107%
viability, T/C [13]: 89.9%
viability, T/C [14]: 92.9%
viability, T/C [15]: 97.4%
viability, T/C [16]: 98.3%
viability, T/C [17]: 115%
viability, T/C [18]: 114%
viability, T/C [19]: 92.7%
viability, T/C [20]: 101%
viability, T/C [21]: 111%
viability, T/C [22]: 103%
viability, T/C [23]: 120%
viability, T/C [24]: 93.1%
viability, T/C [25]: 80.2%
viability, T/C [26]: 96.1%
viability, T/C [27]: 89.6%
viability, T/C [28]: 84.1%
viability, T/C [29]: 104%
viability, T/C [30]: 96.4%
viability, T/C [31]: 82.5%
viability, T/C [32]: 86.8%
viability, T/C [33]: 100%
viability, T/C [34]: 86.9%
viability, T/C [35]: 90.1%
viability, T/C [36]: 96.9%

CC1COCCN1c1cc(C2(O)CC3CCC(C2)O3)c2cnn(-c3ccn[nH]3)c2n1 (stereo not drawn) + Cc1cnc(CNC(=O)c2c(=O)c3ccc(N4CCCN(C)CC4)nc3n3c2sc2ccccc23)cn1
IC50 (second compound 0.0316 µM): > 10000 nM
IC50 (second compound 0.1 µM): 31.6 nM
IC50 (second compound 0.316 µM): > 10000 nM
IC50 (second compound 1 µM): > 10000 nM
IC50 (second compound 3.16 µM): 31.6 nM
IC50 (second compound 10 µM): 31.6 nM
viability, T/C [1]: 64.2%
viability, T/C [2]: 43.7%
viability, T/C [3]: 43.1%
viability, T/C [4]: 61.8%
viability, T/C [5]: 80.2%
viability, T/C [6]: 82.9%
viability, T/C [7]: 67.7%
viability, T/C [8]: 51%
viability, T/C [9]: 35.3%
viability, T/C [10]: 49.2%
viability, T/C [11]: 86.7%
viability, T/C [12]: 90.4%
viability, T/C [13]: 74.2%
viability, T/C [14]: 61.2%
viability, T/C [15]: 47.8%
viability, T/C [16]: 47.4%
viability, T/C [17]: 85.5%
viability, T/C [18]: 81.9%
viability, T/C [19]: 70.1%
viability, T/C [20]: 63.9%
viability, T/C [21]: 44.1%
viability, T/C [22]: 53.6%
viability, T/C [23]: 74.9%
viability, T/C [24]: 85.4%
viability, T/C [25]: 59.7%
viability, T/C [26]: 63.5%
viability, T/C [27]: 42.2%
viability, T/C [28]: 46.2%
viability, T/C [29]: 75.2%
viability, T/C [30]: 76%
viability, T/C [31]: 61.4%
viability, T/C [32]: 62.4%
viability, T/C [33]: 45.2%
viability, T/C [34]: 36.8%
viability, T/C [35]: 68.6%
viability, T/C [36]: 78.5%

CC[C@@]1(O)C(=O)OCc2c1cc1n(c2=O)Cc2cc3c(CN(C)C)c(O)ccc3nc2-1 + Cc1[nH]c2ccc(F)cc2c1-c1nc2c3cccnc3c3ncccc3c2[nH]1
IC50 (second compound 0.0316 µM): 64.6 nM
IC50 (second compound 0.1 µM): 86.6 nM
IC50 (second compound 0.316 µM): 128 nM
IC50 (second compound 1 µM): 102 nM
IC50 (second compound 3.16 µM): 79.7 nM
IC50 (second compound 10 µM): 53 nM
viability, T/C (second compound 0.0316 µM, first compound 0.000999 µM): 92.9%
viability, T/C (second compound 0.0316 µM, first compound 0.00316 µM): 95.8%
viability, T/C (second compound 0.0316 µM, first compound 0.00999 µM): 92.8%
viability, T/C [1]: 56.9%
viability, T/C (second compound 0.0316 µM, first compound 0.0999 µM): 46.2%
viability, T/C [3]: 45.2%
viability, T/C (second compound 0.1 µM, first compound 0.000999 µM): 104%
viability, T/C (second compound 0.1 µM, first compound 0.00316 µM): 90.8%
viability, T/C (second compound 0.1 µM, first compound 0.00999 µM): 86.2%
viability, T/C [7]: 61.7%
viability, T/C (second compound 0.1 µM, first compound 0.0999 µM): 48.8%
viability, T/C [9]: 36.8%
viability, T/C (second compound 0.316 µM, first compound 0.000999 µM): 99.8%
viability, T/C (second compound 0.316 µM, first compound 0.00316 µM): 88.4%
viability, T/C (second compound 0.316 µM, first compound 0.00999 µM): 85.5%
viability, T/C [13]: 71.7%
viability, T/C (second compound 0.316 µM, first compound 0.0999 µM): 49.2%
viability, T/C [15]: 43.4%
viability, T/C (second compound 1 µM, first compound 0.000999 µM): 92.7%
viability, T/C (second compound 1 µM, first compound 0.00316 µM): 98.5%
viability, T/C (second compound 1 µM, first compound 0.00999 µM): 76.2%
viability, T/C [19]: 74.5%
viability, T/C (second compound 1 µM, first compound 0.0999 µM): 46.4%
viability, T/C [21]: 39.8%
viability, T/C (second compound 3.16 µM, first compound 0.000999 µM): 83.7%
viability, T/C (second compound 3.16 µM, first compound 0.00316 µM): 97.3%
viability, T/C (second compound 3.16 µM, first compound 0.00999 µM): 78.4%
viability, T/C [25]: 69.2%
viability, T/C (second compound 3.16 µM, first compound 0.0999 µM): 44.4%
viability, T/C [27]: 38%
viability, T/C (second compound 10 µM, first compound 0.000999 µM): 69.7%
viability, T/C (second compound 10 µM, first compound 0.00316 µM): 79.2%
viability, T/C (second compound 10 µM, first compound 0.00999 µM): 73.5%
viability, T/C [31]: 56.3%
viability, T/C (second compound 10 µM, first compound 0.0999 µM): 42.8%
viability, T/C [33]: 40.8%

C=CCn1c(=O)c2cnc(Nc3ccc(N4CCN(C)CC4)cc3)nc2n1-c1cccc(C(C)(C)O)n1 + CN(C)c1ccc(Nc2c3ccc(NC(=O)CCN4CCCC4)cc3nc3cc(NC(=O)CCN4CCCC4)ccc23)cc1
IC50 (second compound 0.0316 µM): 459 nM
IC50 (second compound 0.1 µM): 682 nM
IC50 (second compound 0.316 µM): 489 nM
IC50 (second compound 1 µM): 548 nM
IC50 (second compound 3.16 µM): 601 nM
IC50 (second compound 10 µM): 1710 nM
viability, T/C [1]: 109%
viability, T/C [2]: 123%
viability, T/C [3]: 56.4%
viability, T/C [4]: 37.7%
viability, T/C [5]: 40.3%
viability, T/C [6]: 31.5%
viability, T/C [7]: 106%
viability, T/C [8]: 96.1%
viability, T/C [9]: 61.5%
viability, T/C [10]: 47.3%
viability, T/C [11]: 34.2%
viability, T/C [12]: 37.5%
viability, T/C [13]: 128%
viability, T/C [14]: 95.1%
viability, T/C [15]: 57.1%
viability, T/C [16]: 38.4%
viability, T/C [17]: 34.9%
viability, T/C [18]: 39.5%
viability, T/C [19]: 95.3%
viability, T/C [20]: 77.2%
viability, T/C [21]: 62.3%
viability, T/C [22]: 35.4%
viability, T/C [23]: 39.6%
viability, T/C [24]: 34.2%
viability, T/C [25]: 99.7%
viability, T/C [26]: 87.2%
viability, T/C [27]: 56.7%
viability, T/C [28]: 42%
viability, T/C [29]: 48.2%
viability, T/C [30]: 42.6%
viability, T/C [31]: 95%
viability, T/C [32]: 80%
viability, T/C [33]: 62.3%
viability, T/C [34]: 45.5%
viability, T/C [35]: 56.3%
viability, T/C [36]: 45.1%
